Here are results for one molecule from PMC9793461 (ADMET & DMPK, 2022).

Values after ≈ are worked out from the molar mass of the structure shown.

The conditions of data set [1]: phosphate buffer pH 7.4 with 10 % (v/v) ethanol; cited from earlier work.
For data set [2] the following is noted: cited from earlier work.
A short description of data set [3]: Solubility of DEX in vegetable oils with cosolvents (shaker, HPLC). In kind it is physicochemical. The note with it: oil or lipid, thermodynamic from solid, 24 hours incubation. How it is done: After centrifugation, 200 μL of supernatant was diluted with 600 μL of tetrahydrofuran and 800 μL of acetonitrile in vials for the HPLC analysis. All samples were prepared in triplicates. Castor oil combined with 20 % (v/v) of isopropanol and castor oil with 20 % (v/v) of Capryol® 90 were chosen as the best formulations for the following experiments.
Samples from the solubility and partitioning studies were analysed on HPLC system Agilent 1100/1200 series connected to diode array detector adjusted to 241 nm. Kinetex C18 column (4.6 x 50 mm, particles 2.6 μm and pore size 100 Å) by Phenomenex (USA), heated to 40 °C, was used. The chromatograms were obtained with a gradient elution, where acetonitrile and buffer pH 2.0 were components of the mobile phase. Injector temperature was adjusted at 35 °C, the flow rate at 1.8 ml/min and sample injection volume at 10 μL. […] The two working standard solutions were obtained by further diluting the stock solution. […] The second standard solution was prepared by diluting 1 mL of stock solution in 100 mL acetonitrile. It was used for DEX assay in solutions composed of four other oils.

In the case of `C[C@@H]1C[C@H]2[C@@H]3CCC4=CC(=O)C=C[C@]4(C)[C@@]3(F)[C@@H](O)C[C@]2(C)[C@@]1(O)C(=O)CO` [DEX, Dexamethasone], the “solubility of DEX” value in data set [1] was 170 µg/mL. Further, in data set [2], the solubility in ethanol result was “sparingly soluble” and the solubility in water result is “practically insoluble”. Also, the solubility at 24 h in data set [3] (castor oil with 20 % (v/v) Capryol 90, 37 °C) was approximately 1200 µg/mL (≈ 3.06 mM). In addition, in data set [3] (castor oil with 20 % (v/v) isopropanol, 37 °C), the solubility at 24 h is approximately 2300 µg/mL (≈ 5.86 mM).

As usually defined, the solubility is how much of the substance goes into solution per volume. The low end stands for little dissolved substance, the high end for much dissolved substance.
